In patent US20020028809A1 (SUNTORY LIMITED, priority 1999, published 2002):
pKi: −log10 of the molar value.

Assays:
[1] = target: T1, α4β2 subtype of nicotinic acetylcholine receptors (Rattus norvegicus, UniProt P09483+P12390); test: Binding assays at α4β2 subtype of nicotinic acetylcholine receptors ([3H]-cytisine, rat brain membrane); details: for control % of [3H]-cytisine binding: rat brain membrane
T1 construct: examined using rat brain membrane obtained from whole homogenized brain; from tissue; host or cells: whole brain of Fischer-344 male rats, membrane pellet
Description: (§1) Methods for evaluating binding capabilities of the compounds at nicotinic acetylcholine receptors are different by subtypes of receptors. Binding capabilities of the compounds at α4β2 nicotinic acetylcholine receptors are examined using rat brain membrane obtained from whole homogenized brain, and determining the inhibiting rate of the compounds against [^3H]-cytisine binding to said brain membrane. Furthermore, the binding capabilities of the compounds at α1β1γδ nicotinic acetylcholine receptors are examined using homogenized rat muscle, and determining the inhibiting rate of the compounds against [^3H]-α-bungarotoxin binding to said muscle homogenate.
Binding assays at α4β2 Subtype of Nicotinic Acetylcholine Receptors
(1) Preparation of Rat Brain Membrane Containing α4β2 Subtype of Nicotinic Acetylcholine Receptors
Rats were housed in the breeding cage controlled of the room temperature at 23±1° C., and the humidity of 55±5% for 1 to 4 weeks. Rats (3 to 4 rats per a cage) were housed with lights on for 12 hours daily (from 7:00 to 19:00), and allowed free access to food and water.
Preparation of rat brain membrane containing α4β2 subtype of nicotinic acetylcholine receptors was performed as follow. That is, rat brains were isolated just after sacrificed by decapitation, washed with ice-cooled saline solution and then frozen at −80° C. with liquid nitrogen and stored till using. After thawing the frozen brain, the brain was homogenized in 10 volumes of ice-cooled buffer solution (50 mM of Tris-HCl, 120 mM of NaCl, 5 mM of KCl, 1 mM of MgCl2, 2mM of CaCl2; pH 7.4; 4° C.) using homogenizer (HG30, Hitachi Kohki Ltd.) for 30 seconds, and the homogenate were centrifuged under 1,000×G for 10 minutes at 4° C. The resulting supernatant was separated and the pellet was homogenized again with half volume of aforementioned prior buffer solution and centrifuged under the same conditions. Combined supernatant was further centrifuged under 40,000×G for 20 minutes at 4° C. The pellet was suspended in buffer solution and used for binding assays at receptors.
(2) Experiments of α4β2 Subtype of Nicotinic Acetylcholine Receptors Binding
Suspensions of membrane pellets containing 400-600 μg of protein were added to test tubes containing test compounds and [^3H]-cytisine (2 nM) in a final volume of 200 μl and incubated for 75 minutes in ice-cooled bath. The samples were isolated by vacuum filtration onto Whatman GF/B filters, which were prerinsed with 0.5% polyethylenimine just prior to sample filtration, using Brandel multi manifold cell harvester. The filters were rapidly washed with buffer solution (3×1 ml). The filters were counted in 3 ml of clearsol I (Nacalai Tesque Inc.).
Analyses of the experimental results were conducted using the Accufit Competition Program (Beckman Ltd.).

[2] = target: T2, α1β1γδ subtype of nicotinic acetylcholine receptors (Rattus norvegicus, UniProt P18916+P25108+P25109+P25110); test: Binding assays at α1β1γδ subtype of nicotinic acetylcholine receptors ([3H]-α-bungarotoxin, rat muscle extract); details: for remaining activity at 100 µM / remaining activity at 1000 µM: read-out: control % of [3H]-α-Bgt binding
T2 construct: Native receptor, no construct: "Triton X100 (2% w/v) was added
Description: as §1
Binding Assays at α1β1γδ Subtype of Nicotinic Acetylcholine Receptors
Affinity of the compounds of the present invention to α1βγδ subtype of nicotinic acetylcholine receptors was measured by the following method, which was modified method described by Garcha H. S., Thomas P., Spivak C.
(1) Preparation of Rat Skeletal Muscles Containing α1β1γδ Subtype of Nicotinic Acetylcholine Receptors
The substantially same animals described in the Biological Experiment 1 were used.
Isolation of α1β1γδ subtype of nicotinic acetylcholine receptors was performed as follow. That is, rat posterior skeletal muscles were isolated just after sacrificed by decapitation, washed with ice-cooled saline solution and then frozen at −80° C. with liquid nitrogen and stored till using. After thawing the frozen muscles, tissue was homogenized (40% w/v) with buffer solution [2.5 mM of sodium phosphate buffer (pH:7.2), 90 mM of NaCl, 2 mM of KCl, 1 mM of EDTA, 2 mM of benzamidine, 0.1 mM of benzethonium chloride, […], 0.01% of sodium azide] in Waring blender (Waring blender 34BL97; WARING PRODUCTS DIVISION DYNAMICS CORPORATION OF AMERICA) for 60 seconds. The homogenate were centrifuged under 20,000×G for 60 minutes at 4° C. The supernatant was separated and the resulting pellet was added to the same buffer (1.5 ml/g wet weight), and homogenized under the same conditions. Triton X100 (2% w/v) was added and the mixture was stirred for 3 hours at 4° C. The centrifugation at 100,000×G for 60 minutes at 4° C. yielded the rat muscle extract as supernatant. This was stored at 4° C. for up to 4 weeks, and used for binding assays at receptors.
(2) Experiments of α1β1γδSubtype of Nicotinic Acetylcholine Receptors Binding
Receptors binding experiments were performed as follow. That is, the extract of rat muscle containing 600-900 μg of protein was added to test tubes containing test compounds and incubated for 15 minutes at 37° C. Then, to this mixture was added 1 nM of [^3H]-α-bungarotoxin (α-Bgt) and further incubated for 2 hours. The samples were isolated by vacuum filtration onto Whatman GF/B filters, which were prerinsed with 0.5% polyethylenimine just prior to sample filtration, using Brandel multi manifold cell harvester. The filters were rapidly rinsed with washing solution (10 mM of KH2PO4, 150 mM of NaCl, pH 7.2, room temperature) (5×1 ml). The filters were counted in 3 ml of clearsol I (Nacalai Tesque Inc.). Determination of nonspecific binding was incubated in the presence of 1 μM α-Bgt.
In the receptor binding experiments, said buffer solution was added for adjusting the final concentration of BSA to be 0.05%.
Analyses of the experimental results were conducted by the same way as described in the Biological Experiment 1.

T1 sequence (P09483 31-630): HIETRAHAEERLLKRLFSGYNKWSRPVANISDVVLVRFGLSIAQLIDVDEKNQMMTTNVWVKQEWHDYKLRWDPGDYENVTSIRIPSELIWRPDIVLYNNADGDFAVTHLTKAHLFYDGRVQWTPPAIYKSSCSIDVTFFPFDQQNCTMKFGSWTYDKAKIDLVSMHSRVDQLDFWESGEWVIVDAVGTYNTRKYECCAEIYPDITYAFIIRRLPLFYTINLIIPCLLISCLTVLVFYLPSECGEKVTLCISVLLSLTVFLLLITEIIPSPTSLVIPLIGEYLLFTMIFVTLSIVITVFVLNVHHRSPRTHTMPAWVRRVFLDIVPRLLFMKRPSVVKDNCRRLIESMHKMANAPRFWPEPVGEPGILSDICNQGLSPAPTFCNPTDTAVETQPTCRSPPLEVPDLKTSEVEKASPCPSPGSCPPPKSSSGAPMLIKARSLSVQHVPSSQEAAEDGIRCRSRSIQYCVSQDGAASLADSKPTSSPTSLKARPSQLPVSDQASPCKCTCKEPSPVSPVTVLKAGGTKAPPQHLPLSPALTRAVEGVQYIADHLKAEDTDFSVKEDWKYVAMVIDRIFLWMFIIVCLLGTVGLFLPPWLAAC
T1 sequence (P12390 25-500): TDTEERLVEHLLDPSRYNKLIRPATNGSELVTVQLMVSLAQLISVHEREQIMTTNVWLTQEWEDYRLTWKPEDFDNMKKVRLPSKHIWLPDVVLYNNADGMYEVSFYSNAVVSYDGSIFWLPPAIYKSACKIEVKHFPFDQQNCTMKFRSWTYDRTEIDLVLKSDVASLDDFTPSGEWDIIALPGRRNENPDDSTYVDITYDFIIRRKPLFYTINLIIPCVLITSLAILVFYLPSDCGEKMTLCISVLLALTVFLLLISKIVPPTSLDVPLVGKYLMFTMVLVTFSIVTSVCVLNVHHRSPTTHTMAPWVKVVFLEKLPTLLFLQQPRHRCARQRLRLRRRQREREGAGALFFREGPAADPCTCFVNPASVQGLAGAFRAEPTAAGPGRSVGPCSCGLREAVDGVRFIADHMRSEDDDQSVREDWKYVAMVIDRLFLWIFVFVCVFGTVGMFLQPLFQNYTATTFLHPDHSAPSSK
T2 sequence (P25108 21-457): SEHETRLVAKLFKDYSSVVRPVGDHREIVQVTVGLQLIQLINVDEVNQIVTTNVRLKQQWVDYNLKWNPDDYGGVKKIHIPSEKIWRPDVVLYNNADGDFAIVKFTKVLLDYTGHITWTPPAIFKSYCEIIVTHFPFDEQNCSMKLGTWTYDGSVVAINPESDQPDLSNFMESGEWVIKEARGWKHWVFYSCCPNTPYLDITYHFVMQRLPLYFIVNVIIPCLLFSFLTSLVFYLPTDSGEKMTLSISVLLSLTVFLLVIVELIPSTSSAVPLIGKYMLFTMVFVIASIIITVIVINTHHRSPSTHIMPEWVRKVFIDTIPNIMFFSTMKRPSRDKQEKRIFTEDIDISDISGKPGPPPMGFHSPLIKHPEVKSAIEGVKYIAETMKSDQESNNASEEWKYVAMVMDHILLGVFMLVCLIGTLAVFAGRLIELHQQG
T2 sequence (P25110 22-517): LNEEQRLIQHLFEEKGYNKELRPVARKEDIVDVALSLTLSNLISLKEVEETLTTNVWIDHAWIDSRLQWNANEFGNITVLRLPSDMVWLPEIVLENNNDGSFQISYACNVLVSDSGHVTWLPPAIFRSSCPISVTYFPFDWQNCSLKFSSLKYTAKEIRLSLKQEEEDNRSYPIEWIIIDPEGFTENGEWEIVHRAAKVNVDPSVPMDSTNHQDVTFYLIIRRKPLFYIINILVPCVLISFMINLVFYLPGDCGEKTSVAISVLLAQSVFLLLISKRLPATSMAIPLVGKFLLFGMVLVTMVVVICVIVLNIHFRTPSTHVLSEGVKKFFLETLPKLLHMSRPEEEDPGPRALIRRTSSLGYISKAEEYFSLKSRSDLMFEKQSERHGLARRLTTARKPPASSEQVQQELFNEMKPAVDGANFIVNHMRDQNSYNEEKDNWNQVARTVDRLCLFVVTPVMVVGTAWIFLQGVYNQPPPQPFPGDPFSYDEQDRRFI
T2 sequence (P25109 24-501): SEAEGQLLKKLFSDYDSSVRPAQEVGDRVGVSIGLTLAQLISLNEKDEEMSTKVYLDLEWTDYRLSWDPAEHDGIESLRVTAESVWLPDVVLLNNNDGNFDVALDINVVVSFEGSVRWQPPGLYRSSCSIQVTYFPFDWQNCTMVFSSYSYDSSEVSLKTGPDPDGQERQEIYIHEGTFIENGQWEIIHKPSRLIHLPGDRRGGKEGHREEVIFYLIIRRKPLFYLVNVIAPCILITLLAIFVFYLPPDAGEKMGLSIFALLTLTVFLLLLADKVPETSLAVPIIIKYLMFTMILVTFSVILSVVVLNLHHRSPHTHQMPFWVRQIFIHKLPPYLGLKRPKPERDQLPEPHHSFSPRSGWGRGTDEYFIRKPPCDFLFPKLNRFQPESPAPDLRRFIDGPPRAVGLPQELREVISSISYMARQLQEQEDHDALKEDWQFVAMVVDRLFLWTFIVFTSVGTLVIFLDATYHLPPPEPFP

## N=c1sc(-c2ccccc2)cn1Cc1ccc(Cl)nc1 [Compound 40, 3-(6-chloro-3-pyridyl)methyl-2-imino-5-phenyl-2,3-dihydrothiazole]
[1]
  pKi: 6.45
[2]
  remaining activity at 100 µM: 71%
  remaining activity at 1000 µM: 35%

## Cc1cc(CN2CCSC2=N)on1 [Compound 35, 2-imino-3-(3-methyl-5-isoxazolyl)methylthiazolidine]
[1]
  pKi: 7.39
[2]
  remaining activity at 100 µM: 12%
  remaining activity at 1000 µM: -3%

## N=c1ncc(-c2ccccc2)cn1Cc1ccc(Cl)nc1 [Compound 46, 1-(6-chloro-3-pyridyl)methyl-2-imino-5-phenyl-1,2-dihydropyrimidine]
[1]
  pKi: 6.56
[2]
  remaining activity at 100 µM: 88%
  remaining activity at 1000 µM: 66%

## N=c1ccc(Cl)cn1Cc1ccc(Cl)nc1 [Compound 22, 5-chloro-1-(6-chloro-3-pyridyl)methyl-2-imino-1,2-dihydropyridine]
[1]
  pKi: 7.47
[2]
  remaining activity at 100 µM: 75%
  remaining activity at 1000 µM: 28%

## N=c1sccn1Cc1c[nH]c2ncccc12 [Compound 66]
[1]
  pKi: 7.79
[2]
  pKi: 3.74

## N=c1ccc([N+](=O)[O-])cn1Cc1ccc(Cl)nc1 [Compound 47, 1-(6-chloro-3-pyridyl)methyl-2-imino-5-nitro-1,2-dihydropyridine]
[1]
  pKi: 6.64
[2]
  remaining activity at 100 µM: 93%
  remaining activity at 1000 µM: 73%

## CC1CSC(=N)N1Cc1ccc(Cl)nc1 (stereo not drawn) [Compound 27, 3-(6-chloro-3-pyridyl)methyl-2-imino-4-methylthiazolidine]
[1]
  pKi: 7.27
[2]
  pKi: 4.79

## Nc1nccn1Cc1ccc(Cl)cc1 [Compound 58, 2-amino-i-(4-chlorobenzyl)imidazole]
[1]; at 1 μM of test compound
  control % of [3H]-cytisine binding: (62%,
[1]; at 10 μM of test compound
  control % of [3H]-cytisine binding: 16%)
[2]
  remaining activity at 100 µM: 62%
  remaining activity at 1000 µM: 37%

## Cc1cn(Cc2ccc(Cl)nc2)c(N)n1 [Compound 53, 2-amino-1-(6-chloro-3-pyridyl)methyl-4-methylimidazole]
[1]
  pKi: 6.65
[2]
  remaining activity at 100 µM: 98%
  remaining activity at 1000 µM: 56%

## Cc1ccn(Cc2ccc(Cl)nc2)c(=N)c1 [Compound 25, 1-(6-chloro-3-pyridyl)methyl-2-imino-4-methyl-1,2-dihydropyridine]
[1]
  pKi: 6.77
[2]
  remaining activity at 100 µM: 90%
  remaining activity at 1000 µM: 58%

## Cc1ccc(Cn2ccccc2=N)cn1 [Compound 48, 2-imino-1-(6-methyl-3-pyridyl)methyl-1,2-dihydropyridine]
[1]
  pKi: 7.32
[2]
  pKi: 4.25

## Cc1cc(Cn2c(C)csc2=N)on1 [Compound 36, 2-imino-4-methyl-3-(3-methyl-5-isoxazolyl)methyl-2,3-dihydrothiazole]
[1]
  pKi: 6.58
[2]
  remaining activity at 100 µM: 10%
  remaining activity at 1000 µM: 2%

## N=C1SCCN1Cc1cccnc1 [Compound 4, 2-imino-3-(3-pyridyl)methylthiazolidine]
[1]
  pKi: 8.12
[2]
  remaining activity at 100 µM: 6%
  remaining activity at 1000 µM: 1%

## CCc1csc(=N)n1Cc1ccc(Cl)nc1 [Compound 21, 3-(6-chloro-3-pyridyl)methyl-4-ethyl-2-imino-2,3-dihydrothiazole]
[1]
  pKi: 7.66
[2]
  remaining activity at 100 µM: 57%
  remaining activity at 1000 µM: 19%

## N=c1ncccn1Cc1ccc(Cl)nc1 [Compound 10, 1-(6-chloro-3-pyridyl)methyl-2-imino-1,2-dihydropyrimidine]
[1]
  pKi: 8.06
[2]
  pKi: 3.46
